In patent publication US20230116760A1, “STRUCTURALLY-STABILIZED ONCOLYTIC PEPTIDES AND USES THEREOF” (Dana-Farber Cancer Institute, Inc., priority 2019, published 2023):
Bridge positions count the residues as written; N and C are the ends. Square brackets hold non-standard residues; d marks the D form. Peptide text beside a SMILES is read from it. S5 = C=CCCC[C@](C)(N)C(=O)O; Nle = CCCC[C@H](N)C(=O)O

What was measured:
[1] = system: leukemia cells (e.g. U937, OCI-AML3 and MV4;11 cells); format: cell-based; conditions: 24 h
Method: (§1) LDH release assay: To assess the release of lactate dehydrogenase (LDH) upon treatment with a structurally-stabilized peptide described herein, an LDH release assay can be used. Cultured cells, including, e.g., cancer cells and HUVEC cells, are plated in 96-well format (2×10^4 cells per well; including overnight incubation for adherent cells) and then treated with serial dilutions of structurally-stabilized peptides in a final volume in a final volume of 100 μL and incubated at 37° C. for the indicated time period (e.g., 90 minutes). The plates are spun down at 1500 rpm for 5 minutes at 4° C., and 80 μL of cell culture media is transferred to a clear plate (Corning), incubated with 80 μL of LDH reagent (Roche) for 15 minutes while shaking, and absorbance is measured at 490 nm on a microplate reader (SpectraMax M5 Microplate Reader, Molecular Devices). LDH release assays, as tailored to specific cancer cell types (OCI-AML3 cells and primary human pediatric B-ALL cells), are exemplified below.
LDH release assay: Cultured cells, including cancer cells and HUVEC cells, were plated in 96-well format (2×10^4 cells per well; including overnight incubation for adherent cells) and then treated with serial dilutions of Mag(i+4) peptides in a final volume in a final volume of […] and incubated at 37° C. for the indicated time period. […]

[2] = mice; Mourtada et al., Nature Biotech, 2019; cited from earlier work
[3] = system: red blood cells (RBCs); format: cell-based, human
Method: RBC hemolysis assay: To assess the hemolytic activity of a structurally-stabilized peptide described herein, a red blood cell (RBV) hemolysis assay can be used. Human blood samples are centrifuged to isolate RBCs, which are then washed and suspended in phosphate-buffered saline to yield a 1% (v/v) suspension. The suspension is added to serial dilutions of peptide stocks in water in clear round-bottom polypropylene 96-well plates and the plates incubated for 1 hour at 37° C. The plates are then centrifuged and the supernatant isolated to determine the amount of hemoglobin released using a spectrophotometer (570 nm). Percent hemolysis is calculated as: ([Treated Absorbance−Untreated Control Absorbance]×100)/(1% Triton X-100 Treated Absorbance−Untreated Control Absorbance).
Stapled oncolytic peptide synthesis: Fmoc-based solid-phase peptide synthesis was used to synthesize stapled antimicrobial peptides in accordance with previously reported methods for generating all-hydrocarbon stapled peptides. To achieve the various staple lengths, α-methyl, α-alkenyl amino acids were installed at i, i+4 positions using two S-pentenyl alanine residues (S5). For the stapling reaction, Grubbs 1st generation ruthenium catalyst dissolved in dichloroethane was added to the resin-bound peptides. To ensure maximal conversion, three to five rounds of stapling were performed. The peptides were then cleaved off of the resin using trifluoroacetic acid, precipitated using a hexane:ether (1:1) mixture, air dried, and purified by LC-MS. All peptides were quantified by amino acid analysis. RBC hemolysis assay: Human blood samples were centrifuged to isolate red blood cells (RBCs), which were then washed and suspended in phosphate-buffered saline to yield a 1% (v/v) suspension. The suspension was added to serial dilutions of peptide stocks in water in clear round-bottom polypropylene 96-well plates and the plates incubated for 1 hour at 37° C. The plates were then centrifuged and the supernatant isolated to determine the amount of hemoglobin released using a spectrophotometer (570 nm). Percent hemolysis was calculated as: ([Treated Absorbance−Untreated Control Absorbance]×100)/(1% Triton X-100 Treated Absorbance−Untreated Control Absorbance).

[4] = system: S. aureus; assay: killing of S. aureus; format: cell-based; conditions: vs Mag(i+4)15
[5] = system: U937 cells; assay: LDH release assay of U937 cells; format: cell-based; conditions: 10 and 25 μg/mL, 90 minutes, FIG. 6, FIG. 7
Method: as §1
(§2) LDH release assay: Cultured cells, including cancer cells and HUVEC cells, were plated in 96-well format (2×10^4 cells per well; including overnight incubation for adherent cells) and then treated with serial dilutions of Mag(i+4) peptides in a final volume in a final volume of […] and incubated at 37° C. for the indicated time period. The plates were spun down at 1500 rpm for 5 min at 4° C., and 80 μL of cell culture media was transferred to a clear plate (Corning), incubated with 80 μL of LDH reagent (Roche) for 15 min while shaking, and absorbance measured at 490 nm on a microplate reader (SpectraMax M5 Microplate Reader, Molecular Devices). LDH release assays, as tailored to specific cancer cell types, are exemplified below.

[6] = system: B. cereus; assay: killing of B. cereus; format: cell-based; conditions: vs Mag(i+4)15
[7] = system: OCI-AML3 cells; assay: LDH release assay of OCI-AML3 cells; format: cell-based, human; conditions: 10 and 25 μg/mL, 90 minutes, FIG. 6, FIG. 7
Method: as §1
(§3) LDH release assay of OCI-AML3 cells: OCI-AML3 cells are seeded in 96-well plates (2×10^4 cells per well) in RPMI medium containing 5% FBS and treated with structurally-stabilized peptides for 90 minutes. LDH release is quantified by incubating centrifuged (e.g., at 1500 rpm) cell culture medium 1:1 with LDH reagent (Roche), followed by absorbance measurement 490 nm on a microplate reader (Spectramax M5). Percent LDH release was normalized to 1% Triton.
as §2
as §3, with “were” for “are”, “with” for “with structurally-stabilized”, “peptides having the indicated amino acid sequences” for “peptides”, “was” for “is”, “centrifuged” for “centrifuged (e.g., at 1500 rpm)”, “Triton. Data was pooled from 2 technical replicates.” for “Triton.”

Row | Molecule | RBC lysis [3] | killing of S. aureus compared to the parent compound [4] | cancer cell lysis by LDH release, compared with parent Mag(i+4)15 [5] | killing of B. cereus compared to the parent compound [6] | cancer cell lysis by LDH release, compared with parent Mag(i+4)15 [7] | also measured
1 | CC(C)[C@@H]1NC(=O)[C@@](C)(NC(=O)[C@H](C)NC(=O)[C@H](CCCCN)NC(=O)CNC(=O)[C@H](Cc2ccccc2)NC(=O)[C@H](CCCCN)NC(=O)[C@H](CCCCN)NC(=O)[C@H](CCCCN)NC(=O)[C@H](CO)NC(=O)[C@H](Cc2c[nH]cn2)NC(=O)[C@]2(C)CCCC=CCCC[C@](C)(NC(=O)CN)C(=O)NCC(=O)N[C@@H](CCCCN)C(=O)N[C@@H](Cc3ccccc3)C(=O)N2)CCCC=CCCC[C@@](C)(C(=O)N[C@@H](C)C(=O)N[C@@H](CCCCN)C(=O)N[C@@H](CCCCN)C(N)=O)NC(=O)[C@H](CCC(=O)O)NC(=O)CNC1=O [Mag(i+4)1,15 (A9K, B21A, N22K, S23K), GX1GKFX2HSKKKFGKAX3VGEX4AKK] (H-G[S5]GKF[S5]HSKKKFGKA[S5]VGE[S5]AKK-NH2; staple 2-6, 16-20) | – | – | – | – | – | EC50 of leukemia cell lysis (LDH release) [1]: 11.5 to 28.2 µg/mL; toxicity (gross toxicity, red cell hemolysis, kidney epithelium) [2]: without gross toxicity, red cell hemolysis or damage to kidney epithelium
2 | CCCC[C@H](NC(=O)[C@@H](NC(=O)[C@H](CCC(=O)O)NC(=O)CNC(=O)[C@@H](NC(=O)[C@H](Cc1ccccc1)NC(=O)[C@H](C)NC(=O)[C@H](CCCCN)NC(=O)CNC(=O)[C@H](Cc1ccccc1)NC(=O)[C@]1(C)CCCC=CCCC[C@](C)(NC(=O)[C@H](CC(C)C)NC(=O)[C@H](Cc2ccccc2)NC(=O)[C@H](CCCCN)NC(=O)CNC(=O)[C@@H](NC(=O)CN)[C@@H](C)CC)C(=O)N[C@@H](CO)C(=O)N[C@@H](C)C(=O)N[C@@H](CCCCN)C(=O)N1)C(C)C)[C@@H](C)CC)C(=O)N[C@@H](CC(N)=O)C(=O)N[C@@H](CO)C(N)=O [Mag(i+4)6, GIGKFLX1SAKX2FGKAFVGEIBNS] (H-GIGKFL[S5]SAK[S5]FGKAFVGEI[Nle]NS-NH2; staple 7-11) | no effect on any cell type | – | – | – | – | –
3 | CCCC[C@@H]1NC(=O)[C@H]([C@@H](C)CC)NC(=O)[C@@](C)(NC(=O)CNC(=O)[C@@H](NC(=O)[C@H](Cc2ccccc2)NC(=O)[C@H](C)NC(=O)[C@H](CCCCN)NC(=O)CNC(=O)[C@H](Cc2ccccc2)NC(=O)[C@H](CCCCN)NC(=O)[C@H](CCCCN)NC(=O)[C@H](C)NC(=O)[C@H](CO)NC(=O)[C@H](Cc2c[nH]cn2)NC(=O)[C@H](CC(C)C)NC(=O)[C@H](Cc2ccccc2)NC(=O)[C@H](CCCCN)NC(=O)CNC(=O)[C@@H](NC(=O)CN)[C@@H](C)CC)C(C)C)CCCC=CCCC[C@@](C)(C(N)=O)NC(=O)[C@H](CC(N)=O)NC1=O [Mag(i+4)18, GIGKFLHSAKKFGKAFVGX1IBNX2] (H-GIGKFLHSAKKFGKAFVG[S5]I[Nle]N[S5]-NH2; staple 19-23) | lytic to all three cell types | – | – | – | – | –
4 | GKGKFLHSAKKFGKAX1VGEX2BNS [Mag(i+4)15 (I2K)] | – | substantially impaired | retain substantial, if not all, oncolytic activity | substantially impaired | retain substantial, if not all, oncolytic activity | –
5 | KIGKFLHSAKKFGKAX1VGEX2BNS [Mag(i+4)15 (G1K)] | – | substantially impaired | retain substantial, if not all, oncolytic activity | substantially impaired | retain substantial, if not all, oncolytic activity | –
